Earlier results as cited in patent publication US20140011766A1, “ANTIMICROBIAL COMPOSITIONS AND METHODS” (priority 2012, published 2014).

Test system: pathogens
Conditions: except for spores (specifically C. difficile spores)

For `CCO` [Ethanol], the killing of pathogens is listed as 99.99%.
